# Earlier results, collected in patent US11773445B1, “Diagnostic methods” (GRIFFITH UNIVERSITY, priority 2015, dated 2023).
# Conditions: CFS patients; multiple Rituximab infusions
substance,measurement,value
Rituximab: drug given as multiple infusions to CFS patients in a cited study; anti-CD20 intervention,patients responded,15 of 25
